# Data: paper PMC11864979, “First-in-class ultralong-target-residence-time p38α inhibitors as a mitosis-targeted therapy for colorectal cancer” (Nature Cancer, 2025)
# Where “and” joins values, the source holds several entries; their conditions need not be identical. Identical values can stand only once.
# Columns and labels:
# [1] = test system: HCT-15; experiment: cell viability in human CRC cell line HCT-15; format: cell-based
# Experimental: To generate KAP^2D cells, KAP organoids were isolated from Matrigel, fragmented by mechanical dissociation and plated without any extracellular matrix on common cell culture dishes. Phoenix-Eco packaging cells (CRL-3214), HCT-15 (CCL-225), HCT 116 (CCL-247), COLO 205 (CCL-222), LS 174T (CL-188), RKO (CRL-2577) and HT-29 (HTB-38) were obtained from the American Type Culture Collection. The cells were cultured at 37 °C and 7% CO2 with RPMI (KAP^2D cells) or DMEM (other cell lines), supplemented with 10% FBS and penicillin–streptomycin. KAP^2D cells were authenticated using PCR (Kras locus and Trp53 locus). Phoenix-Eco packaging cells and HCT-15, HCT 116, COLO 205, LS 174T, RKO and HT-29 cells were authenticated by the provider using short tandem repeat profiling. No commonly misidentified cell lines were used. Mycoplasma contamination was excluded by a PCR-based analysis.
# (§1) For in vitro treatment studies, organoids were mechanically dissociated and digested using TrypLE supplemented with 100 µg ml^−1 DNaseI and 10.5 µM Y-27632 dihydrochloride (Invitrogen) at 37 °C. A total of 1,000–2,000 single cells were plated per well in white 96-well plates (Greiner) in culture medium containing 10% GFR Matrigel or Cultrex BME. The treatment with doxycycline (5 µg ml^−1), pharmacological inhibitors or corresponding volumes of DMSO was started 24 h after plating. Doxycycline was obtained from Sigma-Aldrich. […] Cell viability was measured by means of CellTiter-Glo 3D or CellTiter-Glo 2.0 reagent (Promega) according to the manufacturers’ instructions and the Infinite M Plex reader (Tecan, i-control version 3.9.1 software). Results were normalized to vehicle (DMSO) or to shNC. For cell-doubling assays, the cell number was quantified at the corresponding time points using Guava EasyCyte flow cytometer (Luminex, CytoSoft v5.2 software).
# [2] = test system: subcutaneous KAP CRCs; experiment: treatment of subcutaneous KAP tumors in wild-type mice; format: in vivo, mouse; settings: for Tumor volume: single tumors, Fig. 5i
# [3] = test system: PDO6; experiment: cell viability in patient-derived CRC organoids PDO6; format: cell-based, human
# Experimental: as §1
# [4] = test system: KAP^2D cells; experiment: EdU incorporation in KAP^2D cells; format: cell-based, mouse; settings: replicates, experiment and repetition
# Experimental: (§2) Immunofluorescence staining on cells and organoids was performed on glass coverslips or tissue culture chambers (Sarstedt). Organoids were plated in medium containing 10% Matrigel or Cultrex BME. The cultures were fixed with 4% paraformaldehyde and stained with specific antibodies and DAPI (Vector Labs). All used antibodies and dilutions are listed in the Nature Portfolio Reporting Summary. For analyzing DNA synthesis, the Molecular Probes Click-iT EdU Alexa Fluor 555 kit was used 24 h after EdU incorporation with DAPI counterstaining. SA-β-Gal staining of cells was performed in cell culture dishes (cells) or tissue culture chambers (organoids) after fixation with 0.5% glutaraldehyde as described above. Human cultures were incubated with X-Gal solution at pH 6.0 for ~4 h.
# [5] = test system: KAP^2D cells; experiment: annexin V apoptosis analysis in KAP^2D cells; format: cell-based, mouse; settings: for Annexin V+ cells: Fig. 5a
# Experimental: Apoptosis was analyzed with the FITC annexin V apoptosis detection kit (Biolegend). Both measurements were performed with FACS Canto II (BD) and physical parameters were used to exclude cell debris and cell doublets.
# [6] = test system: KAP^2D cells; experiment: P-H3^S10 / α-tubulin staining, mitotic phases in KAP^2D cells; format: cell-based, mouse; settings: replicates, experiment and repetition
# Experimental: as §2, with “h. […] Positive cells were quantified using ImageJ version 1.53a software. The analysis of mitosis was performed with an LSM800 Airyscan (Zeiss) microscope (ZEN version 3.0 software). An Airyscan autofilter processing was applied before image analysis.” for “h.”
# [7] = test system: PDO7; experiment: cell viability in patient-derived CRC organoids PDO7; format: cell-based, human; settings: PDO7, 1 µM, 4 days
# Experimental: as §1
# [8] = target: p38α (Homo sapiens, UniProt Q16539); experiment: target residence time (TRT) fluorescence polarization jump-dilution assay; format: binding
# Chain of p38α (Q16539 whole entry): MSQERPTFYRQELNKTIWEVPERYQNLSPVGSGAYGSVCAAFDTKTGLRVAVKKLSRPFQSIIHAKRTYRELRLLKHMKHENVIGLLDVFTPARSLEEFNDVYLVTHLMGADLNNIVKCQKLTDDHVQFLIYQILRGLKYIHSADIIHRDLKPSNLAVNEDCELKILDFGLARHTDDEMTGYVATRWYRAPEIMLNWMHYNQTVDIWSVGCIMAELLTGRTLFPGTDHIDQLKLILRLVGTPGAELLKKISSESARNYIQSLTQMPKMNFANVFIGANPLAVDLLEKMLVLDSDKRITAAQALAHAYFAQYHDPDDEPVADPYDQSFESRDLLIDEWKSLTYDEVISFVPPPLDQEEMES
# Experimental: TRTs were determined using a fluorescence polarization assay kit (Transcreener ADP, BellBrook Labs)[29]. […] The formed complex was ‘jump-diluted’ 1:100 (0.5 µl in 49.5 µl) in a 96-half-area-well plate with ATF2 (82 μM), ATP (40 μM) and ADP as the kinase assay detection reagents. The plate was measured every 3 min for 4 h. Fluorescence polarization was detected using the plate reader VictorNivo (PerkinElmer). The data were analyzed using the integrated rate equation in GraphPad Prism version 7.03 software. The residence time was calculated from the reciprocal value of koff.
# [9] = test system: PDO11; experiment: cell viability in patient-derived CRC organoids PDO11; format: cell-based, human
# Experimental: as §1
smiles,measurement,setting,value
CNC(=O)c1ccc2c(c1)C(=O)c1ccc(Nc3ccc(F)c(NC(=O)C4CC4)c3)cc1CC2 [Compound 2015],HCT-15 Cell viability (%),"[1]; 0.0137 µM, 4 d",103.10% and 103.13% and 91.18% and 87.03% and 85.56%
same,HCT-15 Cell viability (%),"[1]; 0.0412 µM, 4 d",84.86% and 83.29% and 102.50% and 98.30% and 96.97%
same,HCT-15 Cell viability (%),"[1]; 0.1235 µM, 4 d",82.55% and 82.85% and 86.50% and 79.01% and 79.10%
same,HCT-15 Cell viability (%),"[1]; 0.3704 µM, 4 d",32.71% and 35.41% and 27.58% and 24.60% and 25.76%
same,HCT-15 Cell viability (%),"[1]; 1.1111 µM, 4 d",27.21% and 26.38% and 23.73% and 21.02% and 21.11%
same,HCT-15 Cell viability (%),"[1]; 3.3333 µM, 4 d",22.84% and 23.64% and 17.67% and 16.95% and 16.80%
same,HCT-15 Cell viability (%),"[1]; 10.0000 µM, 4 d",23.68% and 23.79% and 17.32% and 16.59% and 17.19%
same,IC50,"[1]; Homo sapiens, 96 h, HCT-15, 4 d of treatment",182 nM
same,viability at 0.0137 µM,"[1]; Homo sapiens, HCT-15, 96 h, 0.0137 µM, 4 d, read-out: HCT-15 Cell viability (%)",103%
same,viability at 0.0412 µM,"[1]; Homo sapiens, HCT-15, 96 h, 0.0412 µM, 4 d, read-out: HCT-15 Cell viability (%)",89.2%
same,viability at 0.1235 µM,"[1]; Homo sapiens, HCT-15, 96 h, 0.1235 µM, 4 d, read-out: HCT-15 Cell viability (%)",85.9%
same,viability at 0.3704 µM,"[1]; Homo sapiens, HCT-15, 96 h, 0.3704 µM, 4 d, read-out: HCT-15 Cell viability (%)",23.5%
same,viability at 1.1111 µM,"[1]; Homo sapiens, HCT-15, 96 h, 1.1111 µM, 4 d, read-out: HCT-15 Cell viability (%)",31.6%
same,viability at 3.3333 µM,"[1]; Homo sapiens, HCT-15, 96 h, 3.3333 µM, 4 d, read-out: HCT-15 Cell viability (%)",23.9%
same,viability at 10 µM,"[1]; Homo sapiens, HCT-15, 96 h, 10.0000 µM, 4 d, read-out: HCT-15 Cell viability (%)",24.1%
same,subcutaneous KAP tumor development (in words),"[2]; 20 mg kg^−1 daily, oral gavage",pronounced remission of CRC
same,Tumor volume,[2]; 2 d of treatment,87.5 mm³ and 75.0 mm³ and 126.0 mm³ and 144.0 mm³
same,Tumor volume,[2]; 4 d of treatment,48.0 mm³ and 56.0 mm³ and 40.0 mm³
same,viability at 0.5 µM,"[3]; Homo sapiens, 96 h, PDO6, 0.5 µM, 4 d",20.6%
same,Cell viability (%),"[3]; PDO6, 0.5 µM, 4 d, 0.5 µM",31.27% and 20.78%
same,Cell viability (%),"[3]; PDO6, 1 µM, 4 days, 1 µM",11.74% and 11.40% and 5.21%
same,EdU+ cells,[4]; Fig. 4j,50.19% and 55.77% and 45.40% and 44.63% and 45.42% and 38.28% and 36.62% and 49.78%
same,EdU+ cells,[4]; Fig. 5b,7.76% and 6.30% and 5.41% and 9.24% and 8.18% and 6.48% and 4.44% and 6.67%
same,Annexin V+ cells,[5]; 1 d of treatment,23.30% and 25.40% and 24.30% and 22.30% and 24.90% and 20.90%
same,Annexin V+ cells,[5]; 2 d of treatment,41.00% and 47.90% and 34.70% and 29.60% and 31.10% and 30.20%
same,Annexin V+ cells,[5]; 3 d of treatment,53.10% and 40.00% and 40.60% and 42.30% and 39.50% and 37.30%
same,Annexin V+ cells,[5]; 4 d of treatment,66.80% and 62.60% and 62.90% and 52.60% and 53.50% and 56.70%
same,annexin V positivity (in words),"[5]; KAP^2D, after 3–4 days of treatment",strongly increased annexin V positivity
same,"Anaphase, % (of fully P-H3S10+ cells)",[6]; Fig. 4f,0.00%
same,"Metaphase, % (of fully P-H3S10+ cells)",[6]; Fig. 4f,0.00%
same,"Multipolar mitosis, % (of fully P-H3S10+ cells)",[6]; Fig. 4f,75.00% and 72.55% and 66.43% and 67.83% and 80.50% and 84.38%
same,"Telophase, % (of fully P-H3S10+ cells)",[6]; Fig. 4f,1.72% and 0.65% and 0.70% and 0.00% and 1.89% and 0.78%
same,"P-H3S10+ cells, fully positive",[6]; Fig. 4d,12.93% and 17.02% and 15.43% and 13.33% and 14.34% and 14.40%
same,"P-H3S10+ cells, partially positive",[6]; Fig. 4d,12.04% and 13.24% and 14.13% and 9.97% and 10.28% and 12.15%
same,viability at 1 µM,"[7]; Homo sapiens, 96 h, read-out: Cell viability (%)",5.06%
same,Cell viability (%),[7]; 1 µM,7.93% and 9.20%
same,TRT,"[8]; Fig. 2e, replicates",4961.7 s and 5666.0 s and 5182.4 s
same,TRT,[8]; reciprocal of koff,"5,270 s"
same,viability at 0.5 µM,"[9]; Homo sapiens, 96 h, PDO11, 0.5 µM, 4 d, read-out: Cell viability (%)",105%
same,viability at 1 µM,"[9]; Homo sapiens, 96 h, PDO11, 1 µM, 4 days",10.3%
same,Cell viability (%),"[9]; PDO11, 0.5 µM, 4 d, 0.5 µM",87.92% and 104.04%
same,Cell viability (%),"[9]; PDO11, 1 µM, 4 days, 1 µM",16.83% and 13.26%
